Key:
Settings in all cases: human; call rule not given here
Hepatotoxicity [1] = experiment: FDA HLAED, liver enzyme composite activity
Hepatotoxicity [2] = experiment: FDA HLAED, alkaline phosphatase increase
Hepatotoxicity [3] = experiment: FDA HLAED, serum glutamic oxaloacetic transaminase (SGOT) increase
Hepatotoxicity [4] = experiment: FDA HLAED, serum glutamic pyruvic transaminase (SGPT) increase
Hepatotoxicity [5] = experiment: FDA HLAED, lactate dehydrogenase (LDH) increase
Hepatotoxicity [6] = experiment: FDA HLAED, gamma-glutamyl transferase (GGT) increase
Wherever GGT Increase - Index Value is given: reference of the scale not given here.
Wherever LDH Increase - Index Value is given: reference of the scale not given here.

| SMILES | Composite Activity - Active (Hepatotoxicity [1]) | Composite Activity - Marginal (Hepatotoxicity [1]) | Composite Activity - Score (Hepatotoxicity [1]) | Alkaline Phosphatase Increase - Activity Score (Hepatotoxicity [2]) | Alkaline Phosphatase Increase - Index Value (Hepatotoxicity [2]) | Alkaline Phosphatase Increase - Number of Reports (Hepatotoxicity [2]) | SGOT Increase - Activity Score (Hepatotoxicity [3]) | SGOT Increase - Index Value (Hepatotoxicity [3]) | SGOT Increase - Number of Reports (Hepatotoxicity [3]) | SGPT Increase - Activity Score (Hepatotoxicity [4]) | SGPT Increase - Index Value (Hepatotoxicity [4]) | SGPT Increase - Number of Reports (Hepatotoxicity [4]) | LDH Increase - Activity Score (Hepatotoxicity [5]) | LDH Increase - Index Value (Hepatotoxicity [5]) | LDH Increase - Number of Reports (Hepatotoxicity [5]) | GGT Increase - Activity Score (Hepatotoxicity [6]) | GGT Increase - Index Value (Hepatotoxicity [6]) | GGT Increase - Number of Reports (Hepatotoxicity [6]) | also measured |
| --- | --- | --- | --- | --- | --- | --- | --- | --- | --- | --- | --- | --- | --- | --- | --- | --- | --- | --- | --- |
| CCCCCCCCCC(=O)CC(=O)O[C@H]1CC[C@H]2[C@@H]3CCC4=CC(=O)CC[C@]4(C)[C@H]3CC[C@]12C [TESTOSTERONE KETOLAURATE] | 0 | 0 | Inactive | Inactive | 0 | < 4 | Inactive | 4.8 | < 4 | Inactive | 7.2 | < 4 | Inactive | 2.4 | < 4 | Inactive | 4.8 | < 4 |  |
| O=C1CN=C(c2ccccc2)c2cc(Cl)ccc2N1CC(F)(F)F [HALAZEPAM] | 0 | 0 | Inactive | Inactive | 0 | < 4 | Inactive | 0 | < 4 | Inactive | 0 | < 4 | Inactive | 0 | < 4 | Inactive | 0 | < 4 |  |
| CCCC1O[C@@H]2C[C@H]3[C@@H]4CCC5=CC(=O)C=C[C@]5(C)[C@H]4[C@@H](O)C[C@]3(C)[C@]2(C(=O)CO)O1 (stereo partly specified) [BUDESONIDE] | 0 | 0 | Inactive | Inactive | 0.2 | < 4 | Inactive | 0 | < 4 | Inactive | 0 | < 4 | Inactive | 0 | < 4 | Inactive | 0 | < 4 |  |
| CCOC(=O)[C@H](CCc1ccccc1)N[C@@H](C)C(=O)N1CCC[C@H]1C(=O)O | 0 | 0 | Inactive | Inactive | 0.9 | >= 4 | Inactive | 1 | >= 4 | Inactive | 0.8 | >= 4 | Inactive | 0.6 | >= 4 | Inactive | 0.2 | >= 4 |  |
| CN(C)C(=N)N=C(N)N [METFORMIN] |  |  |  | Inactive | 0 | < 4 | Inactive | 0 | < 4 | Inactive | 0 | < 4 | Inactive | 0 | < 4 | Inactive | 0 | < 4 | Composite Activity - Active (Hepatotoxicity [1]; Liver): 0; Composite Activity - Marginal (Hepatotoxicity [1]; Liver): 0; Composite Activity - Score (Hepatotoxicity [1]; Liver): Inactive |
| CCN[C@H]1C[C@H](C)S(=O)(=O)c2sc(S(N)(=O)=O)cc21 [DORZOLAMIDE] | 0 | 0 | Inactive | Inactive | 0 | < 4 | Inactive | 0.2 | < 4 | Inactive | 0.1 | < 4 | Inactive | 0.1 | < 4 | Inactive | 0 | < 4 |  |
| Cc1nccn1CC1CCc2c(c3ccccc3n2C)C1=O (stereo unspecified) [ONDANSETRON] | 0 | 0 | Inactive | Inactive | 0.5 | >= 4 | Inactive | 1.1 | >= 4 | Inactive | 1.3 | >= 4 | Inactive | 0.9 | >= 4 | Inactive | 0 | < 4 |  |
| C[C@@H](O)[C@H]1C(=O)N2C(C(=O)O)=C(S[C@@H]3CN[C@H](C(=O)N(C)C)C3)[C@H](C)[C@H]12 [MEROPENEM] | 2 | 1 | Active | Inactive | 0 | < 4 | Active | 50.8 | < 4 | Active | 50.8 | < 4 | Marginally Active | 33.8 | < 4 | Inactive | 0 | < 4 |  |
| N[C@@H](C(=O)N[C@@H]1C(=O)N2C(C(=O)O)=C(Cl)CC[C@H]12)c1ccccc1 [LORACARBEF ANHYDROUS] | 0 | 0 | Inactive | Inactive | 0.2 | < 4 | Inactive | 0.2 | < 4 | Inactive | 0.2 | < 4 | Inactive | 0 | < 4 | Inactive | 0.1 | < 4 |  |
| CCn1nc(C(=O)O)c(=O)c2cc3c(cc21)OCO3 [CINOXACIN] | 2 | 0 | Active | Inactive | 0 | < 4 | Active | 16.9 | >= 4 | Active | 15.1 | >= 4 | Inactive | 0 | < 4 | Inactive | 0 | < 4 |  |
| CC(C)(C)NCC(O)c1ccc(O)c(CO)c1 (stereo unspecified) [ALBUTEROL] |  |  |  | Inactive | 0 | < 4 | Inactive | 0.1 | < 4 | Inactive | 0 | < 4 | Inactive | 0 | < 4 | Inactive | 0 | < 4 | Composite Activity - Active (Hepatotoxicity [1]; Liver): 0; Composite Activity - Marginal (Hepatotoxicity [1]; Liver): 0; Composite Activity - Score (Hepatotoxicity [1]; Liver): Inactive |
| Cn1nnnc1SCC1=C(C(=O)[O-])N2C(=O)[C@@H](NC(=O)[C@H](OC=O)c3ccccc3)[C@H]2SC1.[Na+] [CEFAMANDOLE NAFATE] | 0 | 0 | Inactive | Inactive | 0 | < 4 | Inactive | 0 | < 4 | Inactive | 0 | < 4 | Inactive | 0 | < 4 | Inactive | 0 | < 4 |  |
